Source: patent US6211223A, “Indole derivatives useful in therapy” (Pfizer Inc., priority 1997, dated 2001)

Legend:
[1] = molecular target: T1, cloned human ETA receptor (Homo sapiens, UniProt P25101); experiment: Test A: Binding Assay, competition with 125I-ET-1, Binding to ETA Receptors (selectivity versus Binding to ETB Receptors)
T1 sequence (P25101 21-427): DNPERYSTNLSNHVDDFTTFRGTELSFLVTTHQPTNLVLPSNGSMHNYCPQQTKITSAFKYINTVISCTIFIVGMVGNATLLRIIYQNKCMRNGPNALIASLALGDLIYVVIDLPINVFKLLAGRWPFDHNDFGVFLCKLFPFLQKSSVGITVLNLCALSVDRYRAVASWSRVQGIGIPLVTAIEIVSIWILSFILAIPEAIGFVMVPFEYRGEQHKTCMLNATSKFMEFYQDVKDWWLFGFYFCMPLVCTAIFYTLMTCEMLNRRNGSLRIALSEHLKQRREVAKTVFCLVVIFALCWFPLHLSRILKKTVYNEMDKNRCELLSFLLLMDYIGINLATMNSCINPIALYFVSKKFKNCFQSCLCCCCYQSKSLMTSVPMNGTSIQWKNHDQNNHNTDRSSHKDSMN
Description: Competition between test compounds and ^125 I-ET-1 binding to human endothelin receptors is determined as follows.
(§1) 25 μl of a 30 pM solution of [^125 I]Tyr^13 ET-1 (specific activity 2,200 Ci/mM) is mixed with 25 μl samples of test compound (final concentrations in the range 0.1 nM-50,000 nM). 200 μl of a solution containing cloned human ETA receptor (0.75 pmoles receptor protein/ml), 50 mM Tris, 0.5 mM CaCl2, 0.1% human serum albumen, 0.1% bacitracin, 0.05% Tween 20, pH 7.4 is added. The solution is mixed at 37° C. for 2 hours. After the incubation, the unbound ligand is separated from receptor bound ligand by filtration with a Brandel cell harvester, followed by three washes of buffer. Filter papers are counted for radioactivity, and the IC50 (the concentration of test compound at which 50% of the radiolabelled compound is unbound) determined for the concentration range tested.
as §1, with “concentration” for “concentrations in the range”, “ETB” for “ETA”, “(0.25” for “(0.75”

neointimal formation = conditions: rats, balloon angioplasty; S. Douglas et al, Circ Res, 75, 1994; cited from earlier work

Row | SMILES | selectivity for ETA receptors over ETB receptors ([1]; ETA over ETB) | IC50 (ETA) relative to that of its enantiomer ([1]; fraction of the IC50 (ETA) of the (-)-enantiomer) | Ki ([1]; human ETA receptor, read-out: binding affinity for ETA receptors (Ki)) [nM] | reduction in neointimal formation relative to control animals (neointimal formation) [%]
1 | COc1cc(C)ccc1S(=O)(=O)NC(=O)[C@@H](c1ccc2c(c1)OCO2)c1cn(C)c2cc(C(=O)O)ccc12 [Example 1, (S)-(+)-3-{1-(1,3-Benzodioxol-5-yl)-2-[(2-methoxy-4-methylphenyl)sulfonyl-amino]-2-oxoethyl}-1-methyl-1H-indole-6-carboxylic acid] | approximately 400 | approximately one quarter | 4.18 | –
2 | CCCOc1ccc2c(c1)[C@@H](c1ccc(OC)cc1OCC(=O)O)[C@H](C(=O)O)[C@H]2c1ccc2c(c1)OCO2 [SB-209670] | – | – | – | 50
